# Experimental data published in PubChem BioAssay (NCI).
#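 Values below derive from 48-hour exposures of cells grown in 96-well plates, with endpoints linearly interpolated between the two concentrations bracketing the appropriate inhibition level. The concentration for 50% growth inhibition is given as GI50. TGI is the concentration that stops growth completely.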
# Key:
# Experiment in all cases: DTP human tumour cell line panel, 48 h
# [1] = test system: UO-31 renal
# [2] = test system: HOP-92 NSCLC
# [3] = test system: UACC-257 melanoma
# [4] = test system: A549 NSCLC
# [5] = test system: DMS 273 small cell lung
# [6] = test system: DMS 114 small cell lung
# [7] = test system: HCT-116 colon
# [8] = test system: CCRF-CEM leukemia
# [9] = test system: SF-295 CNS
# [10] = test system: OVCAR-5 ovarian
# [11] = test system: KM12 colon
# [12] = test system: NCI-H522 lung
# [13] = test system: MOLT-4 leukemia
# [14] = test system: RXF 393 renal
# [15] = test system: ACHN renal
# [16] = test system: SNB-19 CNS
# [17] = test system: HT29 colon
# [18] = test system: SR leukemia
# [19] = test system: A498 renal
# [20] = test system: NCI-H460 lung
# [21] = test system: NCI-H226 lung
# [22] = test system: SK-OV-3 ovarian
# [23] = test system: U251 CNS
# [24] = test system: EKVX NSCLC
# [25] = test system: TK-10 renal
# [26] = test system: OVCAR-8 ovarian
# [27] = test system: HL-60(TB) leukemia
# [28] = test system: SNB-78 CNS
# [29] = test system: IGROV1 ovarian
# [30] = test system: M14 melanoma
# [31] = test system: HOP-62 NSCLC
# [32] = test system: SK-MEL-28 melanoma
# [33] = test system: NCI-H23 lung
# [34] = test system: SNB-75 CNS
# [35] = test system: HCC-2998 colon
# [36] = test system: SF-268 CNS
# [37] = test system: SW-620 colon
# [38] = test system: SN12C renal
# [39] = test system: OVCAR-4 ovarian
# [40] = test system: OVCAR-3 ovarian
# [41] = test system: SK-MEL-5 melanoma
# [42] = test system: UACC-62 melanoma
# [43] = test system: K-562 leukemia
# [44] = test system: KM20L2 colon
# [45] = test system: 786-0 renal
# [46] = test system: RPMI-8226 leukemia
# [47] = test system: LOX IMVI melanoma
# [48] = test system: CAKI-1 renal
# [49] = test system: SF-539 CNS
# [50] = test system: HCT-15 colon
# [51] = test system: MALME-3M melanoma
# [52] = test system: SK-MEL-2 melanoma
smiles,measurement,setting,value
CCN(CC)CSc1nc2ccccc2[nH]1,TGI,[1],> 100 µM
same,TGI,[2],> 100 µM
same,TGI,[3],> 100 µM
same,TGI,[4],> 100 µM
same,TGI,[5],> 100 µM
same,TGI,[6],> 100 µM
same,TGI,[7],> 100 µM
same,TGI,[8],> 100 µM
same,TGI,[9],> 100 µM
same,TGI,[10],> 100 µM
same,TGI,[11],> 100 µM
same,TGI,[12],> 100 µM
same,TGI,[13],> 100 µM
same,TGI,[14],> 100 µM
same,TGI,[15],> 100 µM
same,TGI,[16],> 100 µM
same,TGI,[17],> 100 µM
same,TGI,[18],> 100 µM
same,TGI,[19],> 100 µM
same,TGI,[20],> 100 µM
same,TGI,[21],> 100 µM
same,TGI,[22],> 100 µM
same,TGI,[23],> 100 µM
same,TGI,[24],> 100 µM
same,TGI,[25],> 100 µM
same,TGI,[26],> 100 µM
same,TGI,[27],> 100 µM
same,TGI,[28],> 100 µM
same,TGI,[29],> 100 µM
same,TGI,[30],> 100 µM
same,TGI,[31],> 100 µM
same,TGI,[32],> 100 µM
same,TGI,[33],> 100 µM
CC(=O)[CH-]C(=O)c1ccccc1.CC(=O)[CH-]C(=O)c1ccccc1.O=S(=O)([O-])c1cc([O-])c2c([O-])cc(S(=O)(=O)[O-])cc2c1.[Na+].[Zr+4],GI50,[1],> 100 µM
same,TGI,[1],> 100 µM
same,GI50,[34],49 µM
same,TGI,[34],> 100 µM
same,GI50,[35],> 100 µM
same,TGI,[35],> 100 µM
same,GI50,[3],87.2 µM
same,TGI,[3],> 100 µM
same,GI50,[36],> 100 µM
same,TGI,[36],> 100 µM
same,GI50,[4],> 100 µM
same,TGI,[4],> 100 µM
same,GI50,[37],> 100 µM
same,TGI,[37],> 100 µM
same,GI50,[7],> 100 µM
same,TGI,[7],> 100 µM
same,GI50,[38],97.3 µM
same,TGI,[38],> 100 µM
same,GI50,[39],> 100 µM
same,TGI,[39],> 100 µM
same,GI50,[9],69.8 µM
same,TGI,[9],> 100 µM
same,GI50,[40],> 100 µM
same,TGI,[40],> 100 µM
same,GI50,[10],> 100 µM
same,TGI,[10],> 100 µM
same,GI50,[11],> 100 µM
same,TGI,[11],> 100 µM
same,GI50,[12],> 100 µM
same,TGI,[12],> 100 µM
same,GI50,[41],> 100 µM
same,TGI,[41],> 100 µM
same,GI50,[42],> 100 µM
same,TGI,[42],> 100 µM
same,GI50,[13],40.8 µM
same,TGI,[13],> 100 µM
same,GI50,[15],> 100 µM
same,TGI,[15],> 100 µM
same,GI50,[43],> 100 µM
same,TGI,[43],> 100 µM
same,GI50,[16],35.3 µM
same,TGI,[16],> 100 µM
same,GI50,[44],> 100 µM
same,TGI,[44],> 100 µM
same,GI50,[45],70.8 µM
same,TGI,[45],> 100 µM
same,GI50,[46],> 100 µM
same,TGI,[46],> 100 µM
same,GI50,[17],> 100 µM
same,TGI,[17],> 100 µM
same,GI50,[19],> 100 µM
same,TGI,[19],> 100 µM
same,GI50,[20],94.1 µM
same,TGI,[20],> 100 µM
same,GI50,[21],30.4 µM
same,TGI,[21],90.9 µM
same,GI50,[22],> 100 µM
same,TGI,[22],> 100 µM
same,GI50,[23],> 100 µM
same,TGI,[23],> 100 µM
same,GI50,[24],> 100 µM
same,TGI,[24],> 100 µM
same,GI50,[47],> 100 µM
same,TGI,[47],> 100 µM
same,GI50,[48],60 µM
same,TGI,[48],> 100 µM
same,GI50,[26],> 100 µM
same,TGI,[26],> 100 µM
same,GI50,[49],> 100 µM
same,TGI,[49],> 100 µM
same,GI50,[50],> 100 µM
same,TGI,[50],> 100 µM
same,GI50,[27],> 100 µM
same,TGI,[27],> 100 µM
same,GI50,[51],53.1 µM
same,TGI,[51],> 100 µM
same,GI50,[52],> 100 µM
same,TGI,[52],> 100 µM
same,GI50,[29],> 100 µM
same,TGI,[29],> 100 µM
same,GI50,[30],52.2 µM
same,TGI,[30],> 100 µM
same,GI50,[31],76 µM
same,TGI,[31],> 100 µM
same,GI50,[32],> 100 µM
same,TGI,[32],> 100 µM
